{"source": "patent US6232345A", "about": "“Cerebral function improving agents” (Shimizu Pharmaceutical Co., Ltd., priority 1995, dated 2001)", "key": {"[1]": {"test_system": "cerebral edema induced by ligation and severing of the bilateral common carotid arteries", "experiment": "Cerebral edema suppressing effect: cerebral water content after ligation and severing of the bilateral common carotid arteries (Examples 1-3)", "type": "in vivo, male Wistar rats", "source_text": "(§1) Rats were operated on under anesthesia which was introduced with ether and maintained by inhalation of a mixture of isoflurane/nitrous oxide/oxygen (0.5:70:30). A midline incision was made in the neck and the connective tissue was carefully dissected to avoid injury to the vagus nerve while exposing the bilateral common carotid arteries.\nFor test drug administration, the right external jugular vein was cannulated and the other end of the cannula was led out through the back of the animal. Then the common carotid artery was ligated at two points (head side and heart side) and severed between the two ligatures. […]\nIn sham-operated rats, the bilateral common carotid arteries were exposed in the same way and the skin incision was closed without arterial ligation and severing.\nOn completion of administration, each rat was decapitated, and the whole brain was isolated immediately. After removal of the cerebellum and the medulla oblongata, the wet weight of the cerebrum was measured. […] The cerebral water content was calculated by using the following formula:\nCerebral water content (%)=(wet weight of the cerebrum-dry weight of the cerebrum)/wet weight of the cerebrum×100. […]"}, "KCN-induced death": {"test_system": "KCN-induced death", "type": "in vivo, male Wistar rats", "settings": "for survival time after KCN: KCN 3 mg/kg, mean ± S.E."}, "[2]": {"test_system": "bilateral common carotid artery ligation (BLCL)", "experiment": "Cerebral metabolic activation: cerebral water and electrolyte content in rats with bilateral common carotid artery ligation (Example 5)", "type": "in vivo, male Wistar rats", "settings": "25 mg/kg/hr i.v. infusion for 5 hours, n = 9, mean ± S.E.", "protocol": "Male Wistar rats purchased from Japan S.L.C., Ltd. were used after a 1-week acclimatization period. The animals were maintained at 23±2° C. and 55±10% humidity with lights on for 12 hours daily (from 7:00 to 19:00). They were fed a pellet diet (MF, Oriental Yeast Co., Ltd.) and tap water ad libitum. Their weight averaged 172.1±6.7 g at the time of the study.\nSodium β-hydroxybutyrate (BHBNa).\nThe dose of BHBNa tested was 25 mg/kg/hr. The test group was treated with a 20 mM BHBNa solution, while the control group received physiological saline. In both groups, administration was performed at a rate of 10 ml/kg/hr for 5 hours.\nRats were operated on under anesthesia which was introduced with ether and maintained by inhalation of a mixture of isoflurane/nitrous oxide/oxygen (0.5:70:30). A midline incision was made in the neck. The connective tissue was dissected carefully to avoid injury to the vagus nerves while exposing the bilateral common carotid arteries. The right external jugular vein was cannulated and the other end of the cannula was led out through the back. Each of the exposed common carotid arteries was ligated at two points (head side and heart side) and severed between the two ligatures. The skin incision was sutured and each rat was immediately given the test drug or physiological saline by continuous intravenous infusion using an infusion pump at a rate of 10 ml/kg/hr for 5 hours. In sham-operated rats, the bilateral common carotid arteries were exposed in the same way and the skin incision was closed without arterial ligation and severing. After completion of administration, each animal was sacrificed by decapitation and the whole brain was immediately isolated. After removal of the cerebellum and the medulla oblongata, the wet weight of the cerebrum was measured. The cerebrum was then dried at 105° C. for 24 hours and the dry weight was measured. The cerebral water content was calculated by using the following formula: […]\nData are expressed as the mean±standard error (S.E.). […]"}, "[3]": {"test_system": "cerebral ischemia model (BLCL)", "experiment": "Cerebral ATP and lactate levels in rats with BLCL (Example 6)", "type": "in vivo, male Wistar rats", "source_text": "as §1\nFor test drug administration, the right external jugular vein was cannulated and the other end of the cannula was led out through the back of the animal. Then the common carotid artery was ligated at two points (head side and heart side) and severed between the two ligatures.\nThe level of significance was set at p<0.05."}, "normal rats without BLCL": {"test_system": "normal rats without BLCL", "experiment": "Cerebral ATP and lactate levels in normal rats without BLCL (Example 6)", "type": "in vivo, male Wistar rats", "settings": "continuous infusion for 3 hours", "protocol": "Male Wistar rats (Japan S.L.C., Ltd.) were used in the study. The animals were maintained at 23±3° C. and 55±15% humidity with lights on for 12 hours daily (from 7:00 to 19:00). They were fed a pellet diet (MF, Oriental Yeast Co., Ltd.) and tap water ad libitum. Their weight ranged from 161.7 to 249.0 g at the time of the study.\nExactly 0.2 g of BHBNa was weighed and dissolved in distilled water for injection to make a final volume of 10 ml. To 9 ml of this solution, physiological saline was added to make up 30 ml. The 0.6% BHBNa solution thus obtained was sterilized by filtration through DISMIC-25CS ([…], ADVANTEC Toyo) prior to use.\nAfter 3 hours of cerebral ischemia, the head of each rat was irradiated with microwaves (5 kW) for 2 seconds using a microwave applicator (TMW6402C, Toshiba) to terminate all enzyme reactions and the production/degradation of metabolites in the brain tissue. […] The weight of the cerebrum was calculated from the difference of the weight of the test tube measured as above.\nThe cerebral ATP level was determined by an enzymatic method (the luciferin-luciferase method) by using Lumat LB9507 (EG&G BERTHOLD). The data obtained were expressed as μmoles/wet weight g.\nThe cerebral lactate level was determined by an enzymatic method (lactate dehydrogenase method) by using Determiner LA (Kyowa Medics). The data obtained were expressed as μmoles/wet weight g. […]"}, "[4]": {"test_system": "middle cerebral artery occlusion/reperfusion model", "experiment": "Cerebral infarction reducing effect: middle cerebral artery occlusion/reperfusion model (Example 7)", "type": "in vivo, male Wistar rats", "experimental": "Male Wistar rats aged 8 weeks (Charles River Japan, Inc.) were used in the study. […] They were fed a pellet diet (MF, Oriental Yeast Co., Ltd.) and tap water ad libitum.\nExactly 0.2 g of BHBNa was weighed and dissolved in distilled water for injection to make up a final volume of 10 ml. To 9 ml of this solution, physiological saline was added to make up 30 ml.\nUnder ether anesthesia, a midline incision was made in the neck. The incision reached the right carotid bifurcation while avoiding injury to the vagus nerve. Around the bifurcation, the common carotid artery and the external carotid artery were separated from surrounding connective tissue and adipose tissue. […] The external carotid artery was then double ligated with 5-0 silk and cut In addition, the right internal carotid artery was dissected out from the surrounding connective tissue to expose the pterygopalatine artery. The external carotid artery was incised, and an embolizing thread was inserted via this incision to a distance of 21 mm into the internal carotid artery. The tip of the thread went beyond the origin of the middle cerebral artery and entered the anterior cerebral artery by about 1-2 mm, so that the middle cerebral artery was occluded by the central portion of the thread.\nIn sham-operated rats, the skin incision was closed without inserting any embolizing thread into the internal carotid artery. The rats were then maintained until the scheduled time of sacrifice.\nAfter the middle cerebral artery was occluded with an embolizing thread for 2 hours, the thread was removed under ether anesthesia to allow reperfusion.\nImmediately after insertion of the embolizing thread, the rats were given a continuous infusion of physiological saline or 0.6% BHBNa solution via a cannula inserted into a femoral vein on the previous day. Administration was performed at a rate of 5 ml/kg/hr using an infusion pump and was continued until the scheduled time of sacrifice (24 hours after reperfusion).\nEach rat was sacrificed at 24 hours after reperfusion. The cerebrum was isolated, and cut into 2 mm coronal sections by using a Brain Slicer (MUROMACHI KIKAI Co., Ltd.) from a point 7 mm behind the edge of the forebrain to the interauricular line (telencephalon). The brain sections were stained to detect normal mitochondria by total immersion for 30 min in a 2% solution of 2,3,5-triphenyltetrazolium chloride (TTC) in physiological saline. […]\nPhotographs of the TTC-stained coronal sections of the cerebrum were scanned by using an film scanner and the data were processed with image analyzing software (NIH Image). The percent infarcted area (mitochondria death) on each cerebral section was calculated from the total area of the unstained regions relative to the entire area of the section."}, "Wistar or SD rats [5]": {"test_system": "Wistar or SD rats", "experiment": "Single dose toxicity study (Example 8)", "type": "in vivo, Wistar or SD rats of both sexes", "settings": "2000 mg/kg, oral or intravenous", "protocol": "(1) BHBNa was orally or intravenously administered to Wistar or SD rats of both sexes at a single dose of 2000 mg/kg."}, "Wistar or SD rats [6]": {"test_system": "Wistar or SD rats", "experiment": "2-week repeated dose toxicity study (Example 8)", "type": "in vivo, male Wistar or SD rats", "settings": "500 mg/kg-2000 mg/kg, oral or intravenous, 2 weeks", "source_text": "(2) BHBNa was repeatedly administered orally or intravenously to male Wistar or SD rats for 2 weeks."}, "[7]": {"experiment": "Stability of test drug and prepared solutions", "type": "physicochemical"}, "[8]": {"settings": "cited from earlier work"}, "acute cerebral injury": {"test_system": "acute cerebral injury", "settings": "intravenous, after acute cerebral injury; cited from earlier work"}}, "note": "Where “and” joins values, the source holds several entries; their conditions need not be identical. Equal entries are not always repeated. Where two headings read alike, the source gives them in different places.", "data": [{"compound": "CC(O)CC(=O)[O-].[Na+]", "note": "(stereo not drawn)", "values": [{"measurement": "relation of cerebral water content to dose", "setting": "[1]; FIG. 1, i.v. infusion for 5 hours", "result": "related to the dose"}, {"measurement": "statistical significance of lower cerebral water content vs. physiological saline group", "setting": "[1]; by dose, i.v. infusion 10 ml/kg/hr for 5 hours", "result": "statistically significant (p<0.01) at doses of 5 mM or more"}, {"measurement": "cerebral water content vs. physiological saline group", "setting": "[1]; sodium β-hydroxybutyrate 3.1-400 mg/kg/hr (2.5-320 mM, 10 ml/kg/hr) i.v. infusion for 5 hours, FIG. 1", "result": "lower than in the physiological saline group"}, {"measurement": "survival time after KCN", "setting": "KCN-induced death; 50 mg/kg/hr for 1 hour i.v., saline 44.6±1.6 sec, FIG. 2", "result": "58.8 ± 2.4", "unit": "s"}, {"measurement": "survival time after KCN", "setting": "KCN-induced death; 100 mg/kg/hr for 1 hour i.v. (duration comparison), FIG. 3", "result": "58.2 ± 2.2", "unit": "s"}, {"measurement": "survival time after KCN", "setting": "KCN-induced death; 100 mg/kg/hr for 1 hour i.v., saline 44.6±1.6 sec, FIG. 2", "result": "58.8 ± 1.2", "unit": "s"}, {"measurement": "survival time after KCN", "setting": "KCN-induced death; 100 mg/kg/hr for 3 hours i.v., FIG. 3", "result": "61.0 ± 1.6", "unit": "s"}, {"measurement": "Cerebral water content", "setting": "[2]; P < 0.01 vs. physiological saline (81.96 ± 0.21)", "result": "79.50 ± 0.09", "unit": "%"}, {"measurement": "Na^+ content", "setting": "[2]; cerebral, P < 0.01 vs. physiological saline (304.39 ± 12.83)", "result": "269.74 ± 15.98", "unit": "mEq/kg dry weight"}, {"measurement": "K^+ content", "setting": "[2]; cerebral, physiological saline 405.99 ± 20.96, not significantly different", "result": "420.42 ± 5.76", "unit": "mEq/kg dry weight"}, {"measurement": "cerebral ATP level", "setting": "[3]; 3 hours of BLCL, BHBNa 30 mg/kg/hr, mean±S.E., saline 0.52±0.10, sham 1.85±0.13", "result": "1.56±0.10", "unit": "μmoles/wet weight g"}, {"measurement": "cerebral lactate level", "setting": "[3]; 3 hours of BLCL, BHBNa 30 mg/kg/hr, mean±S.E., saline 11.39±0.85, sham 0.61±0.12", "result": "1.36±0.17", "unit": "μmoles/wet weight g"}, {"measurement": "cerebral ATP level in normal rats", "setting": "normal rats without BLCL", "result": "no significant effect"}, {"measurement": "cerebral lactate level in normal rats", "setting": "normal rats without BLCL", "result": "no significant effect"}, {"measurement": "localization of infarct foci", "setting": "[4]; 30 mg/kg/hr continuous infusion", "result": "Most infarct foci were localized in the central ischemic zone and few extended to the surrounding regions"}, {"measurement": "Infarction %", "setting": "[4]; 30 mg/kg/hr i.v. infusion from arterial occlusion (2 hours) to 24 hours after reperfusion, n = 4, saline 35.18±2.69%, listed as BHBNa", "result": "18.99% and 18.99 ±1.59%"}, {"measurement": "single dose toxicity", "setting": "Wistar or SD rats [5]", "result": "survived without any abnormal findings"}, {"measurement": "repeated dose toxicity", "setting": "Wistar or SD rats [6]", "result": "survived without any abnormal findings"}, {"measurement": "stability of prepared solution", "setting": "[7]", "result": "at least 1 week"}, {"measurement": "stability on storage", "setting": "[7]", "result": 5, "unit": "months"}, {"measurement": "changes in quality of the lot used in the study", "setting": "[7]; tested after completion of the study", "result": "no changes in quality"}]}, {"compound": "COC(=O)CC(C)O", "note": "(stereo not drawn) [methyl β-hydroxybutyrate]", "values": [{"measurement": "cerebral water content vs. physiological saline-treated group", "setting": "[1]; parenteral solution with methyl β-hydroxybutyrate 2.42 g/l, NaCl, KCl, glucose", "result": "lower than in the physiological saline-treated group"}]}, {"compound": "CC(O)CC(=O)O", "note": "(stereo not drawn) [β-hydroxybutyric acid]", "values": [{"measurement": "increase in cerebral water content induced by BLCL for 6 hours", "setting": "[1]; at the doses tested in Example 4 (50 and 100 mg/kg/hr)", "result": "significantly suppressed"}, {"measurement": "development of cerebral edema (summary)", "setting": "[1]; simultaneous intravenous administration, ligation of bilateral common carotid arteries", "result": "prevented the development of cerebral edema"}, {"measurement": "survival time after lethal KCN (summary)", "setting": "KCN-induced death; intravenous pretreatment", "result": "prolonged the survival time"}, {"measurement": "cerebral ATP levels (summary)", "setting": "[3]; ligation of bilateral common carotid arteries", "result": "high cerebral ATP levels were maintained"}, {"measurement": "extent of cerebral infarction (summary)", "setting": "[4]; administration during ligation of the middle cerebral artery and subsequent reperfusion", "result": "markedly reduced"}, {"measurement": "water solubility", "setting": "[8]", "result": "water-soluble"}, {"measurement": "ketone level in the cerebrospinal fluid", "setting": "acute cerebral injury", "result": "increased"}, {"measurement": "lactate level in the cerebrospinal fluid", "setting": "acute cerebral injury", "result": "decreased"}]}]}
